In the METLIN SMRT retention time set (Domingo-Almenara et al. 2019):

Assay: gradient 5% acetonitrile 3 min, to 50% in 2 min, to 85% in 15 min, held 3 min, 100 µL/min
Details: column: Zorbax Extend-C18 2.1 x 50 mm; eluents: water / acetonitrile, 0.1% formic acid
Procedure, shortened: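 Retention time was recorded from adduct peaks, which were picked computationally and each inspected manually. Pure standards ran in mixtures of ~100 molecules on HPLC coupled to a quadrupole time-of-flight mass spectrometer, in positive and negative ionization mode, through a Zorbax Extend-C18 column (2.1 × 50 mm, 1.8 μm) at 100 μL/min. Eluents were water and acetonitrile, each with 0.1% formic acid.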

| RP-LC retention time [s] | SMILES |
| --- | --- |
| 1050 | Cc1ccc(CNC(=O)CCCn2nc(-n3cccc3)c3c(C)cc(C)nc32)cc1 |
| 712 | Cc1noc(-c2ccnc(-n3cnc(C(=O)NC(C)C)c3)c2)n1 |
| 1110 | Cc1cc(Br)ccc1NS(=O)(=O)c1cc(-c2nc(C)c(C)s2)cs1 |
| 733 | Cc1nn(CC(=O)N2CCOCC2)c(=O)c2c(-n3cccc3)n(-c3cccc(F)c3)nc12 |
| 550 | CCN1CCN(CCNC(=O)c2csc(-c3ccc(N4CCCC4)nc3)n2)CC1 |
| 786 | COc1ncc(C(=O)Nc2ccc(Cl)cc2)c(C)n1 |
| 819 | CSc1cccc(N2C=C(C(=O)N3CCCC3)S(=O)(=O)c3ccccc32)c1 |
| 615 | Cc1nn(CC(=O)NCCCN2CCOCC2)c(=O)c2nc(-c3ccccc3)sc12 |
| 726 | CCOC(=O)c1csc(NC(=O)c2ccc3ncsc3c2)n1 |
| 714 | CCCN1CCN(C(=O)C2=Cc3cc(-c4ccccc4)ccc3OC2)CC1 |
| 974 | O=C(Nc1ccccc1F)C(=O)c1cn(CC(=O)N2CCCC2)c2ccccc12 |
| 921 | CN1C(=O)c2cccc3c(C(=O)c4ccccc4)ccc(c23)C1=O |
| 656 | O=C(Nc1ccnc2ccc(Cl)cc12)c1ccc(S(=O)(=O)NC2CC2)cc1 |
| 1020 | CCOC(=O)c1[nH]c(C)c(CN(Cc2ccco2)C(=O)Cc2ccc(F)cc2)c1C |
| 675 | CC(=O)Nc1ccc(CC(=O)N2CCCC(c3nc(-c4ccc(NC(C)=O)cc4)no3)C2)cc1 (stereo not given) |
| 971 | CSc1ccc(CCNC(=O)C2CCCN(C(=O)Cc3cccc4ccccc34)C2)cc1 (stereo not given) |
| 625 | Cc1ccc(S(=O)(=O)Nc2ccc(-c3cn4cccc(C)c4n3)cc2)cc1C |
| 892 | CCSCCOC(=O)C1=C(C)NC2=C(C(=O)CCC2)C1c1ccc(C(=O)OC)cc1 (stereo not given) |
| 863 | CCCc1nc(NCc2cc(OC)ccc2OC)ncc1C(=O)O |
| 723 | COCCNC(=O)NCc1ccc2c(c1)N(C(=O)c1ccc(C)cc1)CC2 |
| 1030 | O=C(NCCc1csc(-c2ccc(Cl)cc2)n1)C(=O)Nc1ccc2c(c1)OCCO2 |
| 816 | Cc1ccc(-c2nnc(SCc3noc(CCC(=O)Nc4nccs4)n3)o2)cc1 |

| RP-LC retention time [s] | SMILES |
| --- | --- |
| 704 | CCNC(=O)Nc1ccc2c(c1)CN(S(=O)(=O)c1cnn(CC)c1)CCO2 |
| 972 | COc1ccc(OC)c(-c2nc(Nc3ccc(C)c(Cl)c3)sc2CC(=O)O)c1 |
| 1140 | CC(C)(C)c1ccc(-c2noc(-c3nn(-c4cccc(F)c4)ccc3=O)n2)cc1 |
| 843 | Cc1ccccc1Nc1c(-c2cc(Br)ccc2F)nc2c(C)cccn12 |
| 1360 | Cc1ccc(C)c(NC(=O)c2c(O)c3cccnc3n(-c3ccc(F)cc3)c2=O)c1 |
| 652 | c1coc(-c2nc(-c3ccc4c(c3)nnn4CCN3CCCCC3)no2)c1 |
| 711 | CCc1cc(=O)n(CC(=O)Nc2ccccc2F)c(N2CCOCC2)n1 |
| 996 | COc1ccc(-c2nc(C3CC(=O)N(c4ccc(Cl)cc4)C3)no2)c(OC)c1 (stereo not given) |
| 816 | CN(C)C(=O)c1cc2cccc3c2n1CCS3 |
| 871 | CC(C)C(=O)N1CCCc2ccc(NC(=O)c3ccc(F)c(F)c3)cc21 |
| 568 | Cc1nccn1C1CN(C(=O)Nc2ccccc2)C1 |
| 763 | CCCCN1C(=O)C2(NCCc3c2[nH]c2ccc(OC)cc32)c2cc(Br)ccc21 (stereo not given) |
| 1080 | O=C(NC1CCCC1)c1cc2sccc2n1Cc1ccc(F)cc1 |
| 627 | Cc1nc(OCC(=O)NCCN2CCCC2)c2c(-c3ccccc3)noc2n1 |
| 668 | CN(C)CCn1nnc2cc(-c3noc(Cc4cccc(F)c4)n3)ccc21 |
| 1110 | CCN(CC)c1nc2cc(C(=O)OC)ccc2c(=O)n1-c1cccc(OC)c1 |
| 797 | COc1ccc(Br)cc1CNC(=O)C1CCN(c2ccc3nnc(C)n3n2)CC1 |
| 540 | COc1ccc(C(O)CN2CCN(C3CCCCC3)CC2)cc1 (stereo not given) |
| 608 | CNCCc1cnc(CCC(c2ccccc2)c2ccccc2)[nH]1 |
| 581 | CC1=C(c2ccc(C)cc2)S(=O)(=O)N=C1N1CCCN(C(=O)C2CC2)CC1 |
| 714 | CCc1nc2cc(N3CCC(C(=O)N4CCCC4)CC3)cnc2nc1CC |
| 1030 | Cc1nc(-c2cn(C(C)C)c3ncccc23)sc1C(=O)N1CCCCC1C (stereo not given) |

| RP-LC retention time [s] | SMILES |
| --- | --- |
| 989 | CCN1C(=O)COc2ccc(-c3csc(NC(=O)c4ccc(F)cc4)n3)cc21 |
| 1220 | Cc1nc(-c2cc(S(=O)(=O)N3CCCCC3C)c(C)s2)sc1C (stereo not given) |
| 612 | Cc1ccnc(OCC(=O)Nc2cc(C)on2)n1 |
| 827 | Nc1nc(-c2ccccc2Cl)nn1C(=O)C1CC1 |
| 622 | Cn1nc(CN2CCCC2)c2c1CCN(S(=O)(=O)c1ccc(F)cc1F)C2 |
| 839 | Cc1cc(C)n(-c2ccnc(N3CCC(C(=O)NCCc4ccccc4)CC3)n2)n1 |
| 993 | CSc1ccc(-c2nc3ccc(Cl)cn3c2Nc2ccc(Cl)cc2)cc1 |
| 1030 | COc1ccc(-c2ncc3c(n2)CCN(C(=O)c2ccc(C)c(C)c2)C3)cc1 |
| 798 | CCOc1ccc(NC(=O)Cc2nnc3ccc(C(=O)Nc4ccccc4)cn23)cc1 |
| 566 | CCC(O)c1nc2ccccc2n1CC(=O)N1CCOCC1 (stereo not given) |
| 577 | CCC(=O)N1CCC(N2CC(OCC3CC3)C23CCOCC3)CC1 (stereo not given) |
| 868 | O=C(NC1CC1)c1ccc(OCC2CCN(C(=O)Cc3ccc(Cl)cc3)CC2)cc1 |
| 909 | O=C1COc2ccc(S(=O)(=O)N3CCC(C(=O)Nc4ccc(OC(F)(F)F)cc4)CC3)cc2N1 |
| 810 | COc1ccc(CNC(=O)Cn2c(=O)cc(-c3nc(C)no3)c3ccccc32)cc1 |
| 674 | O=C(c1ccco1)N1CCCC(c2cc(-c3ccc(F)cc3)n[nH]2)C1 (stereo not given) |
| 1090 | Cc1ccc2c(c1)N(S(C)(=O)=O)CCC(C(=O)Nc1ccc(C(F)(F)F)cc1)O2 (stereo not given) |
| 1020 | COc1cccc(N2CCN(Cc3nc(-c4ccc(N5CCC(C)CC5)nc4)no3)CC2)c1 |
| 709 | COc1ccc(NC(=O)Cn2cnc3nc4c(cc3c2=O)CCCC4)c(OC)c1 |
| 705 | CCc1cccc(C)c1NC(=O)Cn1nc2c3ccccc3ncn2c1=O |
| 715 | CCOC(=O)c1c(C)[nH]c(CCC(=O)NCCc2c[nH]c3ccccc23)c1C |
| 685 | CC(C)(CO)NCc1ccc(-c2ccc(Cl)cc2Cl)o1 |
| 638 | CCN1CCCCc2cc(C(=O)N(C)CCN(C)C)sc21 |

| RP-LC retention time [s] | SMILES |
| --- | --- |
| 580 | NC(=O)C1CCN(C(=O)CN2CCN(c3ccccc3F)CC2)CC1 |
| 547 | CCCN(C)CC1(O)CCC2(CCN(Cc3ccc(F)cc3)CC2)CC1 |
| 718 | O=C(CCc1c(-c2cccc(Cl)c2)nc2ccccn12)N1CCN(c2ccccc2)CC1 |
| 802 | O=C(NCCC1=CCCCC1)C1CCN(C(=O)C2Sc3ccccc3NC2=O)CC1 (stereo not given) |
| 640 | O=C(CCc1ccccc1)NCC(=O)Nc1nc2ccccc2[nH]1 |
| 1100 | CCCN1C(=O)c2cc(S(=O)(=O)Nc3ccc(F)c(F)c3)ccc2Oc2cccnc21 |
| 954 | Cc1sc(NC(=O)c2ccc(Cl)cc2)nc1-c1ccc2c(c1)NC(=O)CO2 |
| 837 | Clc1cccc(-c2ccc(CNCc3ccco3)o2)c1 |
| 1290 | CCn1c(=O)c(C(=O)Nc2cccc(SC)c2)c(O)c2sccc21 |
| 816 | COc1cc2ncc(C#N)c(N3CCC(C(=O)Nc4cccc(Cl)c4)CC3)c2cc1OC |
| 772 | Cc1ccc(C)c(Nc2nc(-c3ccncc3)nc3ccccc23)c1 |
| 746 | CN1C(=O)COc2cc(-c3noc(C(=O)N4CCCC4)n3)ccc21 |
| 830 | O=C(Cn1c(=O)c2cc(-c3cccs3)nn2c2ncccc21)NCc1ccccc1 |
| 777 | COc1cccc(CN2CCC3(CC2)C(OC)CN3c2cccc(F)c2)n1 (stereo not given) |
| 613 | CCn1c(C2CCCN(C(=O)NC(C)C)C2)nn(C)c1=O (stereo not given) |
| 857 | Cn1nc(-c2nnc(-c3ccccc3)o2)c2c1CCN(S(=O)(=O)c1cccc3cccnc13)C2 |
| 753 | CCN(CC)S(=O)(=O)c1ccc2c(c1)N(CC(=O)NC)C(=O)C1CCCCN21 (stereo not given) |
| 717 | O=C(COc1ccc(F)c(F)c1)Nc1cnc(-c2cccnc2)nc1 |
| 608 | Nc1cc(-c2cccc(F)c2)[nH]n1 |
| 1060 | COc1cc(Cl)ccc1-c1nc(-c2ccc3c(c2)oc(=O)n3C)no1 |
| 1060 | CC(C)c1ccc(S(=O)(=O)N2CCC(n3c(-c4ccco4)nc4cccnc43)C2)cc1 (stereo not given) |
| 713 | CCc1ccc(-c2cc3c(=O)n(CC(=O)NCC4CCCN4CC)nc(C)n3n2)cc1 (stereo not given) |

| SMILES | RP-LC retention time [s] |
| --- | --- |
| O=C(Nc1cc(F)ccc1F)c1c(O)c2cccnc2n(Cc2ccccc2)c1=O | 1170 |
| COc1ccc(NC2=NCCO2)c2c1CCCC2 | 640 |
